Consider 17 compounds from patent publication US20210002263A1, “HETEROARYLPYRIMIDINE COMPOUND AND FORMULATION FOR CONTROLLING HARMFUL ORGANISMS” (Nippon Soda Co., Ltd., priority 2018, published 2021).

SMILES strings stand for the structures.

In data set [1] the test system is Aphis craccivora. Nature of the data set: Efficacy test against Aphis craccivora (spray on black-eyed pea plants). The class given is in vivo. As to conditions: in Vigna unguiculata, 96 h, sprayed on black-eyed pea plants, nymphs, 4 days after spraying, read-out: insect mortality rate. Here is the method: (§1) 5 parts of the compound of the present invention, 93.6 parts of dimethylformamide and 1.4 parts of polyoxyethylene alkyl aryl ether were mixed and dissolved to prepare Emulsion (I) including 5% of an active ingredient.
(§2) An insect mortality rate was calculated by the numerical equation shown below.
(§3) Insect mortality rate (%)={(Number of dead insects)/(Number of sample insects)}×100
Black-eyed pea plants were raised in No. 3 pots and the primary leaves were inoculated with nymphs of Aphis craccivora. Emulsion (I) was diluted with water so that the concentration of the compound of the present invention was 125 ppm. Subsequently, the aforementioned diluted liquid was sprayed on the black-eyed pea plants on which the nymphs of Aphis craccivora were parasitic. The aforementioned black-eyed pea plants were then placed in a thermostatic chamber with a temperature of 25° C. and humidity of 60%. Mortality was investigated 4 days after spraying was carried out, and the insect mortality rate of Aphis craccivora was calculated. The test was performed twice.

Data set [2] has as its system Mythimna separata. Nature of the data set: Efficacy test against Mythimna separata (treated artificial feed). The class given is in vivo. As to conditions: 1 μl of Emulsion (I) (5% active ingredient) in 0.8 g artificial feed; second-instar larvae; 25° C.; fifth day. The procedure: as §1
For the control, Emulsion (II) was prepared by mixing and dissolving 93.6 parts of dimethylformamide and 1.4 parts of polyoxyethylene alkyl aryl ether.
as §2, §3
0.8 g of a commercially available artificial feed (Insecta LFS, manufactured by Nosan Corporation) and 1 μl of Emulsion (I) were mixed thoroughly. Thereby, a test feed was obtained.
The test feed was placed in an amount of 0.2 g in each of the treatment areas of a plastic test container (volume: 1.4 ml). Subsequently, two second-instar larvae of Mythimna separata were inoculated into each treatment area, and the test container was sealed with a plastic lid in order to prevent the larvae from escaping. The sealed container was placed in a thermostatic chamber at 25° C., and the insect mortality rate and the amount of feed consumed were determined on the fifth day. The test was performed twice.
As the control areas, the insect mortality rate and the amount of feed consumed were determined in the same manner as that described in Test Example 1, with the exception of replacing Emulsion (I) with Emulsion (II).

For data set [3], the system named is Phyllotreta striolata. The data set is described as follows: Efficacy test against Phyllotreta striolata (spray on bok-choi seedlings). It is filed as in vivo. Conditions: 168 h, sprayed on bok-choi seedlings, adults, 7 days after inoculation, read-out: insect mortality rate. Here is the method: as §1, §2, §3
Emulsion (I) was diluted with water so that the concentration of the compound of the present invention was 125 ppm, to prepare a diluted liquid for testing. The aforementioned diluted liquid was sprayed on bok-choi seedlings (7th major leaf-development period) planted in No. 3 pots. After the bok-choi seedlings were subjected to air-drying, the seedlings were placed in plastic cups, followed by inoculating 10 adult Phyllotreta striolata. The plastic cups were stored in a thermostatic chamber at a temperature of 25° C. and humidity of 65%. Mortality was investigated 7 days after inoculation, and the insect mortality rate was calculated. The test was performed twice.

The test system of data set [4] is Plutella xylostella. Nature of the data set: Efficacy test against Plutella xylostella (cabbage leaf dip). It is filed as in vivo. As to conditions: foliar, 72 h, cabbage leaves soaked 30 seconds, second-instar larvae, 3 days after inoculation, read-out: insect mortality rate. Here is the method:
as §1, §2, §3
Emulsion (I) was diluted with water so that the concentration of the compound of the present invention was 125 ppm. Cabbage leaves were soaked in the diluted liquid for 30 seconds. Subsequently, the cabbage leaves were put on Petri dishes, followed by inoculating 5 second-instar larvae of Plutella xylostella. The Petri dishes were placed in a thermostatic chamber at a temperature of 25° C. and humidity of 60%. Mortality was investigated 3 days after inoculation, and the insect mortality rate was calculated. The test was performed twice.

Data set [5] deals with Nilaparvata lugens. Nature of the data set: Efficacy test against Nilaparvata lugens (rice seedling dip). The class given is in vivo. Conditions: 168 h, rice seedlings soaked 30 seconds, second-instar larvae, 7 days after inoculation, read-out: insect mortality rate. The procedure:
as §1, §2, §3
Emulsion (I) was diluted with water so that the concentration of the compound of the present invention was 125 ppm. Rice seedlings were soaked in the diluted liquid for 30 seconds, and subjected to air-drying. Subsequently, the rice seedlings were placed in plastic cases, followed by inoculating 5 second-instar larvae of Nilaparvata lugens. The plastic cases were placed in a thermostatic chamber at a temperature of 25° C. and humidity of 65%. Mortality was investigated 7 days after inoculation, and the insect mortality rate was calculated. The test was performed twice.

`CCS(=O)(=O)c1cnc(-c2ncccn2)nc1-c1nc2cc(C(F)(F)F)cnc2n1C` [A-2, 2-(5-(ethylsulfonyl)-[2,2′-bipyrimidin]-4-yl)-3-methyl-6-(trifluoromethyl)-3H-imidazo[4,5-b]pyridine]: the mortality at 125 ppm in data set [1], in data set [3], in data set [4] and in data set [5] was at least 80% throughout. In addition, the “insect mortality rate or amount of feed consumed relative to control area” value in data set [2] is given as “mortality rate against Mythimna separata was 100%, or the amount of feed consumed was 10% or less”.
As for `CCS(=O)(=O)c1cnc(-c2ncn(C)n2)nc1-c1nc2cc(C(F)(F)F)cnc2n1C` [A-5], the “insect mortality rate or amount of feed consumed relative to control area” value in data set [2] is “mortality rate against Mythimna separata was 100%, or the amount of feed consumed was 10% or less”.
For the compound `CCS(=O)(=O)c1cnc(-c2ncccn2)nc1-c1nc2cc(SC(F)(F)F)ccc2o1` [A-7, 2-(5-(ethylsulfonyl)-[2,2′-bipyrimidin]-4-yl)-5-((trifluoromethyl)thio)benzo[d]oxazole], the melting point (commonly the temperature, or range, at which the solid turns liquid) was 223 to 225 °C.
Same read-out and setting: the result for `CCS(=O)(=O)c1cnc(-c2ncccn2)nc1-c1nc2cc([S+]([O-])C(F)(F)F)ccc2o1` (stereo not drawn) [A-8, 2-(5-(ethylsulfonyl)-[2,2′-bipyrimidin]-4-yl)-5-((trifluoromethyl)sulfinyl)benzo[d]oxazole] reads 192 to 195 °C; that for `CCS(=O)(=O)c1cnc(-c2ncccn2)nc1-c1nc2cc(S(=O)(=O)C(F)(F)F)ccc2o1` [A-9, 2-(5-(ethylsulfonyl)-[2,2′-bipyrimidin]-4-yl)-5-((trifluoromethyl)sulfonyl)benzo[d]oxazole], 118 to 124 °C.
As to `CCS(=O)(=O)c1cnc(N)nc1-c1nc2cc(SC(F)(F)F)ccc2o1` [A-10], in data set [2], the “insect mortality rate or amount of feed consumed relative to control area” value was “mortality rate against Mythimna separata was 100%, or the amount of feed consumed was 10% or less”.
Turning to `CCS(=O)(=O)c1cnc(-n2ncnc2N)nc1-c1nc2cc(C(F)(F)F)cnc2n1C` [A-12, 1-(5-(ethylsulfonyl)-4-(3-methyl-6-(trifluoromethyl)-3H-imidazo[4,5-b]pyridin-2-yl)pyrimidin-2-yl)-1H-1,2,4-triazol-5-amine], the “insect mortality rate or amount of feed consumed relative to control area” value in data set [2] was “mortality rate against Mythimna separata was 100%, or the amount of feed consumed was 10% or less”. Further, the mortality at 125 ppm in data set [3], in data set [4] and in data set [5] was at least 80% each time.
For the compound `CCS(=O)(=O)c1cnc(N)nc1-c1nc2cc(C(F)(F)F)cnc2n1C` [A-13], the “insect mortality rate or amount of feed consumed relative to control area” value in data set [2] is reported as “mortality rate against Mythimna separata was 100%, or the amount of feed consumed was 10% or less”.
With `CCS(=O)(=O)c1cnc(NC)nc1-c1nc2cc(C(F)(F)F)cnc2n1C` [A-16], in data set [2], the “insect mortality rate or amount of feed consumed relative to control area” value was “mortality rate against Mythimna separata was 100%, or the amount of feed consumed was 10% or less”.
As to `CCS(=O)(=O)c1cnc(N(C)C)nc1-c1nc2cc(C(F)(F)F)cnc2n1C` [A-17], the “insect mortality rate or amount of feed consumed relative to control area” value in data set [2] was “mortality rate against Mythimna separata was 100%, or the amount of feed consumed was 10% or less”.
Still for that read-out and setting: the result for `CCS(=O)(=O)c1cnc(-n2cccn2)nc1-c1nc2cc(C(F)(F)F)cnc2n1C` [A-20] reads “mortality rate against Mythimna separata was 100%, or the amount of feed consumed was 10% or less”; that for `CCS(=O)(=O)c1cnc(OC)nc1-c1nc2cc(C(F)(F)F)cnc2n1C` [A-23], “mortality rate against Mythimna separata was 100%, or the amount of feed consumed was 10% or less”.
Consider `CCS(=O)(=O)c1cnc(NN)nc1-c1nc2cc(C(F)(F)F)cnc2n1C` [A-24, 2-(5-(ethylsulfonyl)-2-hydrazineylpyrimidin-4-yl)-3-methyl-6-(trifluoromethyl)-3H-imidazo[4,5-b]pyridine], for which the melting point fell in the range of 227 to 229 °C.
In the case of `CCS(=O)(=O)c1cnc(-n2ccc(N)n2)nc1-c1nc2cc(C(F)(F)F)cnc2n1C` [A-25], in data set [2], the “insect mortality rate or amount of feed consumed relative to control area” value was “mortality rate against Mythimna separata was 100%, or the amount of feed consumed was 10% or less”.
In the case of `CCOC(=O)c1cnn(-c2ncc(S(=O)(=O)CC)c(-c3nc4cc(C(F)(F)F)cnc4n3C)n2)c1N` [A-26, ethyl 5-amino-1-(5-(ethylsulfonyl)-4-(3-methyl-6-(trifluoromethyl)-3H-imidazo[4,5-b]pyridin-2-yl)pyrimidin-2-yl)-1H-pyrazole-4-carboxylate], the mortality at 125 ppm in data set [1], in data set [3] and in data set [4] was at least 80% throughout. The “insect mortality rate or amount of feed consumed relative to control area” value in data set [2] is on record as “mortality rate against Mythimna separata was 100%, or the amount of feed consumed was 10% or less”.
`CCS(=O)(=O)c1cnc(-n2nccc2N)nc1-c1nc2cc(C(F)(F)F)cnc2n1C` [A-27, 1-(5-(ethylsulfonyl)-4-(3-methyl-6-(trifluoromethyl)-3H-imidazo[4,5-b]pyridin-2-yl)pyrimidin-2-yl)-1H-pyrazol-5-amine]: the melting point lay within 247 to 249 °C.
Consider `CCS(=O)(=O)c1cnc(NCCN)nc1-c1nc2cc(C(F)(F)F)cnc2n1C` [A-28], for which the “insect mortality rate or amount of feed consumed relative to control area” value in data set [2] is listed as “mortality rate against Mythimna separata was 100%, or the amount of feed consumed was 10% or less”.
